Experimental data: the NIST ThermoML archive (doi:10.1016/j.jct.2005.04.019)

Assays:
[1] = xn = mol fraction of the nth substance listed; details: 298.15 K, 101 kPa, Liquid; for speed of sound: Quartz crystal interferometer (Mittal Enterprises, India)
[2] = 298.15 K, 101.33 kPa, Liquid; for viscosity: Capillary tube (Ostwald / Ubbelohde) method; for mass density: Vibrating tube method; for speed of sound: Quartz crystal interferometer (Mittal Enterprises, India)

CCCCCC(C)O (stereo unspecified) [2-heptanol] + CC1CCCCC1
[1]
Details | mass density [kg/m3] | speed of sound [m/s] | viscosity [mPa·s]
x2 = 0.0998 | – | 1278 | –
x2 = 0.103 | 808.34 | – | 3.935
x2 = 0.1479 | – | 1272 | –
x2 = 0.1524 | 805.84 | – | 3.415
x2 = 0.206 | – | 1263 | –
x2 = 0.2071 | 803.04 | – | 2.945
x2 = 0.2564 | 800.53 | – | 2.587
x2 = 0.3047 | 798.08 | – | 2.287
x2 = 0.3053 | – | 1250 | –
x2 = 0.3558 | 795.52 | – | 2.013
x2 = 0.3966 | – | 1239 | –
x2 = 0.4019 | 793.23 | – | 1.817
x2 = 0.4469 | 791.02 | – | 1.649
x2 = 0.4951 | 788.67 | – | 1.49
x2 = 0.5005 | – | 1229 | –
x2 = 0.5969 | 783.72 | – | 1.225
x2 = 0.5973 | – | 1223 | –
x2 = 0.7017 | – | 1223 | –
x2 = 0.703 | 778.57 | – | 1.017
x2 = 0.7974 | – | 1222 | –
x2 = 0.7979 | 773.96 | – | 0.879
x2 = 0.8883 | 769.71 | – | 0.773
x2 = 0.9017 | – | 1219 | –
x2 = 0.9514 | – | 1215 | –

CCCCC(C)O (stereo unspecified) [2-hexanol]
[2]
Details | mass density [kg/m3] | viscosity [mPa·s]
– | 810.25 | 4.204

CCCCCCC(C)O (stereo unspecified) [2-octanol]
[2]
Details | mass density [kg/m3] | viscosity [mPa·s]
– | 816.13 | 6.568

CCCCCC(C)O (stereo unspecified) [2-heptanol]
[2]
Details | mass density [kg/m3] | viscosity [mPa·s]
– | 813.33 | 5.346

CC1CCCCC1 [methylcyclohexane] + CC(C)O
[1]
Details | mass density [kg/m3] | speed of sound [m/s] | viscosity [mPa·s]
x1 = 0.0648 | 778.57 | – | 1.771
x1 = 0.1102 | 776.98 | – | 1.589
x1 = 0.1123 | – | 1143 | –
x1 = 0.1475 | 775.78 | – | 1.462
x1 = 0.2041 | 774.1 | – | 1.315
x1 = 0.2053 | – | 1143 | –
x1 = 0.2422 | 773.07 | – | 1.232
x1 = 0.303 | 771.57 | – | 1.113
x1 = 0.3034 | – | 1144 | –
x1 = 0.3511 | 770.5 | – | 1.034
x1 = 0.3937 | – | 1148 | –
x1 = 0.3947 | 769.61 | – | 0.975
x1 = 0.4603 | 768.4 | – | 0.896
x1 = 0.4954 | 767.81 | – | 0.86
x1 = 0.5031 | – | 1155 | –
x1 = 0.5589 | 766.86 | – | 0.801
x1 = 0.578 | 766.6 | – | 0.789
x1 = 0.5788 | – | 1160 | –
x1 = 0.6707 | 765.53 | – | 0.734
x1 = 0.6715 | – | 1168 | –
x1 = 0.7466 | – | 1176 | –
x1 = 0.7715 | – | 1178 | –
x1 = 0.7727 | 764.75 | – | 0.695
x1 = 0.8299 | – | 1184 | –
x1 = 0.8993 | – | 1194 | –
x1 = 0.9011 | 764.45 | – | 0.679
x1 = 0.9472 | – | 1201 | –

CCCC(C)O (stereo unspecified) [pentan-2-ol] + CC1CCCCC1
[1]
Details | mass density [kg/m3] | speed of sound [m/s] | viscosity [mPa·s]
x2 = 0.067 | 801.75 | – | 2.764
x2 = 0.1011 | 799.88 | – | 2.501
x2 = 0.1026 | – | 1227 | –
x2 = 0.1561 | 796.91 | – | 2.148
x2 = 0.2018 | – | 1219 | –
x2 = 0.2088 | 794.12 | – | 1.863
x2 = 0.2653 | 791.21 | – | 1.618
x2 = 0.2991 | 789.53 | – | 1.488
x2 = 0.3077 | – | 1211 | –
x2 = 0.3581 | 786.7 | – | 1.317
x2 = 0.3974 | 784.89 | – | 1.219
x2 = 0.3999 | – | 1206 | –
x2 = 0.4481 | 782.64 | – | 1.113
x2 = 0.4885 | 780.93 | – | 1.044
x2 = 0.4976 | – | 1203 | –
x2 = 0.5997 | – | 1202 | –
x2 = 0.6007 | 776.49 | – | 0.901
x2 = 0.6973 | 773.05 | – | 0.819
x2 = 0.6984 | – | 1204 | –
x2 = 0.8001 | 769.78 | – | 0.75
x2 = 0.8007 | – | 1207 | –
x2 = 0.8981 | 767.12 | – | 0.704
x2 = 0.8998 | – | 1211 | –
x2 = 0.9488 | – | 1211 | –

CCCCC(C)O (stereo unspecified) [2-hexanol] + CC1CCCCC1
[1]
Details | mass density [kg/m3] | speed of sound [m/s] | viscosity [mPa·s]
x2 = 0.1002 | – | 1252 | –
x2 = 0.1017 | 804.9 | – | 3.089
x2 = 0.1514 | 802.31 | – | 2.701
x2 = 0.2026 | 799.67 | – | 2.344
x2 = 0.2041 | – | 1239 | –
x2 = 0.2473 | 797.41 | – | 2.082
x2 = 0.2837 | – | 1231 | –
x2 = 0.2995 | 794.85 | – | 1.836
x2 = 0.3508 | 792.24 | – | 1.632
x2 = 0.3521 | – | 1225 | –
x2 = 0.3989 | – | 1222 | –
x2 = 0.4019 | 789.75 | – | 1.468
x2 = 0.452 | 787.34 | – | 1.345
x2 = 0.4948 | – | 1216 | –
x2 = 0.4972 | 785.2 | – | 1.227
x2 = 0.5955 | 780.68 | – | 1.052
x2 = 0.5978 | – | 1212 | –
x2 = 0.6904 | – | 1209 | –
x2 = 0.6956 | 776.28 | – | 0.917
x2 = 0.808 | – | 1208 | –
x2 = 0.8089 | 771.63 | – | 0.798
x2 = 0.8967 | – | 1214 | –
x2 = 0.8987 | 768.24 | – | 0.729
x2 = 0.9509 | – | 1215 | –

CC1CCCCC1 [methylcyclohexane] + CCC(C)O
[1]
Details | mass density [kg/m3] | speed of sound [m/s] | viscosity [mPa·s]
x1 = 0.0988 | – | 1207 | –
x1 = 0.1026 | 796.47 | – | 2.207
x1 = 0.1536 | 793.6 | – | 1.933
x1 = 0.2015 | 791.01 | 1199 | 1.72
x1 = 0.2544 | 788.28 | – | 1.509
x1 = 0.3058 | – | 1193 | –
x1 = 0.3307 | 784.56 | – | 1.281
x1 = 0.3604 | 783.2 | – | 1.216
x1 = 0.3993 | – | 1190 | –
x1 = 0.4086 | 781.07 | – | 1.107
x1 = 0.4679 | 778.61 | – | 1.002
x1 = 0.5007 | – | 1189 | –
x1 = 0.5012 | 777.3 | – | 0.953
x1 = 0.5872 | 774.19 | – | 0.856
x1 = 0.6001 | – | 1189 | –
x1 = 0.6926 | 770.91 | – | 0.77
x1 = 0.7 | – | 1192 | –
x1 = 0.7737 | – | 1196 | –
x1 = 0.7844 | 768.54 | – | 0.729
x1 = 0.8916 | 766.35 | – | 0.696
x1 = 0.8996 | – | 1203 | –
x1 = 0.9489 | – | 1206 | –

CC(C)O [propan-2-ol]
[2]
Details | mass density [kg/m3] | speed of sound [m/s] | viscosity [mPa·s]
– | 781.06 | 1142 | 2.098

CCCC(C)O (stereo unspecified) [pentan-2-ol]
[2]
Details | mass density [kg/m3] | speed of sound [m/s] | viscosity [mPa·s]
– | 805.4 | 1235 | 3.421

CC1CCCCC1 [methylcyclohexane]
[2]
Details | mass density [kg/m3] | speed of sound [m/s] | viscosity [mPa·s]
– | 764.99 | 1209 | 0.683

CC1CCCCC1 [methylcyclohexane] + CCO
[1]
Details | mass density [kg/m3] | speed of sound [m/s] | viscosity [mPa·s]
x1 = 0.0499 | 782.02 | – | 1.034
x1 = 0.1024 | 779.14 | – | 0.987
x1 = 0.1037 | – | 1146 | –
x1 = 0.1492 | 776.99 | – | 0.949
x1 = 0.1893 | – | 1151 | –
x1 = 0.194 | 775.25 | – | 0.915
x1 = 0.2467 | 773.53 | – | 0.886
x1 = 0.313 | 771.77 | – | 0.853
x1 = 0.3143 | – | 1157 | –
x1 = 0.3363 | 771.24 | – | 0.841
x1 = 0.4007 | – | 1162 | –
x1 = 0.4015 | 769.94 | – | 0.81
x1 = 0.4438 | 769.21 | – | 0.79
x1 = 0.4752 | 768.72 | – | 0.776
x1 = 0.4788 | – | 1166 | –
x1 = 0.5844 | 767.23 | – | 0.732
x1 = 0.5884 | – | 1173 | –
x1 = 0.6993 | – | 1181 | –
x1 = 0.7002 | 765.95 | – | 0.692
x1 = 0.8147 | 765.03 | – | 0.672
x1 = 0.8209 | – | 1191 | –
x1 = 0.8864 | 764.74 | – | 0.667
x1 = 0.8943 | – | 1196 | –
x1 = 0.9473 | – | 1202 | –

CCCCCCC(C)O (stereo unspecified) [2-octanol] + CC1CCCCC1
[1]
Details | mass density [kg/m3] | speed of sound [m/s] | viscosity [mPa·s]
x2 = 0.1001 | – | 1292 | –
x2 = 0.1006 | 811.52 | – | 4.941
x2 = 0.1185 | 810.68 | – | 4.692
x2 = 0.1672 | 808.39 | – | 4.097
x2 = 0.2032 | – | 1282 | –
x2 = 0.2104 | 806.32 | – | 3.651
x2 = 0.2489 | 804.45 | – | 3.308
x2 = 0.2536 | 804.22 | – | 3.263
x2 = 0.3003 | – | 1269 | –
x2 = 0.3171 | 801.09 | – | 2.769
x2 = 0.347 | 799.59 | – | 2.58
x2 = 0.3979 | 797.02 | – | 2.268
x2 = 0.4001 | – | 1258 | –
x2 = 0.4503 | 794.35 | – | 2.022
x2 = 0.5043 | – | 1247 | –
x2 = 0.5168 | 790.9 | – | 1.72
x2 = 0.5766 | 787.77 | – | 1.5
x2 = 0.5969 | 786.69 | – | 1.443
x2 = 0.5973 | – | 1239 | –
x2 = 0.684 | 782.06 | – | 1.199
x2 = 0.6889 | – | 1231 | –
x2 = 0.8058 | 775.5 | – | 0.943
x2 = 0.8109 | – | 1222 | –
x2 = 0.9002 | 770.39 | – | 0.793
x2 = 0.9008 | – | 1219 | –
x2 = 0.9466 | – | 1216 | –

CCC(C)O (stereo unspecified) [butan-2-ol]
[2]
Details | mass density [kg/m3] | speed of sound [m/s] | viscosity [mPa·s]
– | 802.54 | 1213 | 2.907

CCO [ethanol]
[2]
Details | mass density [kg/m3] | speed of sound [m/s] | viscosity [mPa·s]
– | 785.32 | 1145 | 1.093
